In patent publication US20240201170A1, “MAINTENANCE AND/OR CULTURE OF TISSUE SLICES IN VITRO OR EX VIVO” (NATIONAL UNIVERSITY OF SINGAPORE, priority 2021, published 2024):

Columns and labels:
[1] = tested on: cancer cells within HNSCC patient tumour slices; experiment: Cancer cell kill: pan-cytokeratin+ / cleaved caspase-3+ cells by dual IHC or IF in drug-treated tumour slices; assay type: cell-based, human
Experimental: H&E staining and dual IHC were performed on drug-treated and untreated HNSCC slices. Briefly, slices were fixed, processed using the automatic tissue processor, and embedded in paraffin. Paraffin blocks were sectioned and H&E staining was performed. Dual IHC was performed using ChromoPlex 1 Dual Detection (Leica DS9665) with a high pH EDTA-based buffer (ER2, Leica AR9640) for 20 min. A specific cocktail of antibodies was used to identify cancer cell apoptosis, including pan-cytokeratin and cleaved caspase-3 antibody. Standard immunofluorescence were performed with active YAP1. Image acquisition was done using the slide scanning system. The images were processed with a customized analysis profile using the nuclear segmentation method to quantify the percentage of apoptotic cancer cells.

[2] = tested on: CD8+ cells in HNSCC tumour slices; experiment: Flow cytometry of granzyme B expression in CD8+ cells of drug-treated HNSCC patient tumour slices; assay type: cell-based, human
Experimental: Tumour slices were first manually removed from the hydrogel and digested. Dissociated cells were spun down, washed, and resuspended, and counted using a cell counter. Prior to fixing, cells were stained for surface proteins with fluorophore-conjugated antibodies and fixable dye. The cell suspension were then […]. Compensation was performed using single stains; live cells and singlets were gated by gating on a dye differentiating live and dead cells or on scatter characteristics or both.

| Molecule | apoptotic cancer cells ([1]; Patient 6 (HN358), controls ~5%) [%] | cleaved caspase-3 positivity (apoptotic) in cancer cells ([1]; Patient 6 (HN358), Day 2, controls ~11%) [%] | tumour kill in drug-treated slices ([1]; Patient 7 (HN359)) | granzyme B expression in CD8+ cells ([2]; Patient 6 (HN358), control 8.9%) [%] | granzyme B expression in CD8+ cells ([2]; Patient 7 (HN359), compared to control) |
| --- | --- | --- | --- | --- | --- |
| N.N.[Cl][Pt][Cl] [cisplatin] | ~12 |  |  |  |  |
| pembrolizumab |  | ~25 | no enhanced tumour kill | 5.2 | slight increase |
